Results taken from US12161632B2, “Compositions and methods of treating cardiac fibrosis with ifetroban” (Cumberland Pharmaceuticals Inc., priority 2014, dated 2024).
“Also recorded” adds a separate entry of the source. Where two headings read alike, the source gives them in different places.

Assays:
[1] = system: α and ß isoforms of the TP receptor; conditions: cited from earlier work
[2] = system: right ventricle gene expression; assay: Right ventricle gene expression, Affymetrix Mouse Gene 2.0 arrays (Example IV); format: in vivo, mice; conditions: banded mice, 25 mg/kg/day, 2 weeks
Description: FVB/N mice or mice with a GFP macrophage-specific lineage tracing marker (LysM-Cre) underwent pulmonary banding to directly increase load stress (or sham surgery for controls), and starting the following day received either vehicle or the thromboxane receptor antagonist Ifetroban sodium in their drinking water (25 mg/kg/day). After 2 weeks, noninvasive hemodynamics were obtained by transthoracic echocardiography and invasive hemodynamics were obtained by pressure-volume catheterization of the right heart prior to sacrifice. Hearts were assessed for fibrosis and macrophage infiltration. RNA from right ventricles were isolated and used for unbiased discovery of altered gene expression using Affymetrix Mouse Gene 2.0 arrays performed on four groups (banded or sham). LysM-Cre mouse hearts were flash-frozen whole, cross-sectioned, and assessed by microscopy for fibrosis and macrophage infiltration. Differences between groups were assessed by ANOVA and t-tests. Correlations were assessed by Spearman correlation.

[3] = system: RV proteins (TP receptor, MHC, phospho-SMAD2/3, TSP-4); conditions: for TSP-4 protein expression in RV: high dose 25 mg/kg/day
Description: Mice underwent pulmonary arterial banding (PAB) or sham surgery, and were treated for 2 weeks with vehicle or ifetroban (competitive antagonist of TPα/TPβ) in the drinking water.
The effect of ifetroban treatment on known fibrotic and anti-fibrotic signaling pathways was examined.
In another arm of this example, low dose (3 mg/kg/day) ifetroban was administered to mice via the drinking water for 2 weeks following pulmonary artery banding.

[4] = system: cultured cardiomyocytes given exogenous TGF-ß; assay: TGF-ß signalling in cultured cardiomyocytes (PAI-1 expression, promoter luciferase); format: cell-based; conditions: compared to vehicle-treated cells
[5] = system: pulmonary artery banding (PAB) model of right ventricular pressure overload; assay: PAB model of right ventricular pressure overload: hemodynamics, echocardiography, histology (Example VII); format: in vivo; conditions: PAB mice, low dose 3 mg/kg/day via drinking water, 2 weeks
[6] = system: pulmonary artery banded wild-type mice; assay: Pulmonary artery banding, two or six weeks of treatment: histology and echocardiography (Example VI); format: in vivo; conditions: PAB mice, 30 mg/kg/day, 6 weeks
Description: Wild-type mice underwent pulmonary artery banding followed by two weeks or six weeks of treatment with ifetroban (30 mg/kg/day via the drinking water) vs. control (plain drinking water). The pulmonary artery band mimics pulmonary hypertension and right heart failure.

[7] = system: RV gene expression; assay: Gene expression arrays on pooled RV from sham or PAB mice (Example VII); format: in vivo
Source text: To determine the mechanism through which ifetroban reduced fibrosis and protected RV contractility, we performed gene expression arrays on sets of pooled RV from mice with sham or PAB surgery, with and without drug treatment. By principal components analysis strong effect of banding was found, and an effect of ifetroban only in mice that had undergone banding. […] In particular, there were changes in gene expression associated with adhesion, collagen organization, extracellular structure, and developmental processes.

[8] = PAB mice, 25 mg/kg/day, 2 weeks
[9] = only in the context of pressure overload

## CCCCCNC(=O)c1coc([C@H]2[C@@H](Cc3ccccc3CCC(=O)O)[C@@H]3CC[C@H]2O3)n1 [ifetroban, [1S-(1α,2α,3α,4α)]-2-[[3-[4-[(Pentylamino)carbonyl]-2-oxazolyl]-7-oxabicyclo[2.2.1]hept-2-yl]methyl]-benzenepropanoic acid]
[1]
  blockade of TPα and TPβ receptor isoforms: effectively blocked
[2]
  anti-fibrotic pathways (THBS4, Asporin, LTBP2), expression arrays: induction of anti-fibrotic pathways including THBS4 and TGF-beta inhibitors Asporin and LTBP2
  pathways related to functional hypertrophy, expression arrays: induction of pathways related to functional hypertrophy
  pro-fibrotic pathways (PDGF-D, FBXO32), expression arrays: reduction of pro-fibrotic pathways such as PDGF-D and FBXO32
[3]; 2 weeks following PAB or drug treatment
  TP receptor expression in the RV (Western blot): remained constant
[3]; PAB mice versus vehicle-treated mice
  phospho-SMAD2/3 associated with PAB: less phospho-SMAD2/3
[3]; PAB mice, 25 mg/kg/day
  localization of TSP-4 in RV: increased cardiomyocyte expression of TSP-4
[3]; [8]
  α-MHC protein expression in RV (Western blot): no change in α-MHC expression
  β-MHC protein expression in RV (Western blot): strongly induced
[3]; PAB mice, 2 weeks
  induction of the pro-fibrotic TGF-beta pathway: blocked induction
[3]; PAB mice, 2 weeks, 25 mg/kg/day
  TSP-4 protein expression in RV: increased TSP-4 protein; also recorded: increases the expression of antifibrotic TSP-4
[3]; PAB mice, 2 weeks, listed as Ifetroban, 25 mg/kg/day
  TSP-4 protein expression in RV: increased expression of anti-fibrotic thrombospondin-4
[3]; PAB mice, low dose 3 mg/kg/day, 2 weeks
  TSP-4 expression in RV (Western blot densitometry): does not
[4]
  PAI-1 expression or promoter activity: no change
[5]
  fibrosis of the right ventricle (histology): does not prevent fibrosis
[6]
  cardiomyocyte diameter in the right ventricle: protected against increases in cardiomyocyte diameter
  echocardiography, left ventricular cardiac function (end diastolic/systolic volume, stroke volume, ejection fraction, fractional shortening): cardiac function values similar to the animals that underwent sham surgery; also recorded: echo values similar to sham surgery animals
  right ventricular fibrosis: reduced right ventricular fibrosis
[7]; 25 mg/kg/day, 2 weeks
  principal components analysis of RV gene expression: strong effect of ifetroban only in mice with banding
[7]; PAB RV only
  Thbs4 expression (mRNA): strongly enhances
[7]; PAB mice
  expression of antifibrotic genes: increased expression
  expression of genes associated with fibrosis: reduced expression
[7]; PAB mice versus banded controls
  expression of genes associated with myogenic differentiation: enhanced
[7]; [8]
  RV expression of Cd14, Tlr8 and other pro-inflammatory genes: decreased RV expression
[7]; [9]
  expression of genes associated with inflammatory cell recruitment: reduced expression
  genes associated with adaptive remodeling: ifetroban-induced genes associated with adaptive remodeling
[7]; sham, 25 mg/kg/day, 2 weeks
  gene expression in mice with only sham surgeries: did not significantly change gene expression
